Activity calls are given as the source filed them.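 Rule for the calls: active = compound cutting virus infection of reporter cells by half or more at some tested dose; inactive = the rest.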

The experiment deals with MAGI-CCR5 HeLa cells, HIV-1 IIIB, beta-gal luminescence, 48 h. Put plainly: X4 HIV-1 replication inhibitors in MAGI cells, dose response, MAGI-CCR5 cells, beta-gal luminescence, 2% serum (AID 504363).
As to `O=C(O)CCCN1C(=O)/C(=C/c2cc3ccccc3o2)SC1=S`, the IC50 (usually the concentration that gives 50% inhibition) was 24.8 µM.
The value for `CS(=O)(=O)C1=NSC2=NC(=O)/C(=C\c3cccn3-c3ccc(Cl)c(Cl)c3)C(=N)N21` was 33.7 µM; that for `O=C(O)CCCN1C(=O)/C(=C\c2ccc(-c3cccc(Cl)c3)o2)SC1=S` was 28.7 µM.
The value for `CS(=O)(=O)C1=NSC2=NC(=O)/C(=C\c3cccn3-c3ccc(F)cc3)C(=N)N21` was 34.9 µM; that for `COc1ccc(Cn2c(O)cc3nn(-c4nc5ccccc5s4)c(=O)c-3c2C)cc1` was 3.09 µM.
The value for `CCOC(=O)C1=C(C)N=c2sc(=Cc3ccc(OCC(=O)O)cc3)c(=O)n2C1c1ccccc1` (stereo not drawn) was 34.4 µM.
For the molecule `Cc1c2c(=O)n(-c3nc4ccccc4s3)nc-2cc(O)n1Cc1ccc(F)cc1`, the IC50 was 2.63 µM.
The value for `CCOC(=O)C1=C(C)N=c2sc(=Cc3ccc(OCC(=O)O)cc3)c(=O)n2C1c1ccc(OC)cc1OC` (stereo not drawn) was 33.7 µM; that for `CCOC(=O)C1=C(C)N=c2sc(=Cc3ccc(OCC(=O)O)cc3)c(=O)n2C1c1cc(OC)c(OC)c(OC)c1` (stereo not drawn) was 91.7 µM; that for `COc1cccc(C2C(C(=O)Nc3ccccc3)=C(C)N=c3sc(=Cc4ccc(OCC(=O)O)cc4)c(=O)n32)c1` (stereo not drawn) was 39.7 µM.
As for `CCOC(=O)C1=C(c2ccccc2)N=c2s/c(=C\c3ccc(OCC(=O)O)cc3)c(=O)n2C1c1cccc(OC)c1` (stereo not drawn), the IC50 is 10.6 µM.
The value for `O=C(O)c1ccc([C@@H]2Nc3ccc(S(=O)(=O)Nc4cccc5ccccc45)cc3[C@@H]3C=CC[C@@H]32)cc1` was 11 µM.
The value for `Cc1c2c(=O)n(-c3nc4ccccc4s3)nc-2cc(O)n1Cc1ccccc1Cl` was 4.17 µM.
The value for `CCOC(=O)C1=C(C)N=c2s/c(=C\c3ccc(OCC(=O)O)cc3)c(=O)n2C1c1ccc(Cl)cc1` (stereo not drawn) was 24.4 µM; that for `O=C(O)CCCN1C(=O)/C(=C\c2ccc(-c3ccc(Br)cc3)o2)SC1=S` was 37.9 µM.
`Cc1c2c(=O)n(-c3nc4ccccc4s3)nc-2cc(O)n1CCc1cccs1`: the IC50 is 3.7 µM.
`CS(=O)(=O)C1=NSC2=NC(=O)/C(=C\c3cccn3-c3cccc(Cl)c3)C(=N)N21`: the IC50 is 35.7 µM.
The value for `CCOC(=O)C1=C(C)N=c2sc(=Cc3ccc(OCC(=O)O)cc3)c(=O)n2C1c1ccccc1OC` (stereo not drawn) was 34.5 µM; that for `Cc1ccc(-n2cccc2/C=C2/C(=N)N3C(=NC2=O)SN=C3S(C)(=O)=O)cc1` was 34.3 µM; that for `CS(=O)(=O)C1=NSC2=NC(=O)/C(=C\c3cccn3-c3ccc(Br)cc3)C(=N)N21` was 34.3 µM.
As for `COc1ccc(-n2cccc2/C=C2/C(=N)N3C(=NC2=O)SN=C3S(C)(=O)=O)cc1Cl`, the IC50 is 36.8 µM.
As for `Cc1c2c(=O)n(-c3nc4ccccc4s3)nc-2cc(O)n1Cc1cccs1`, the IC50 is 3.25 µM.
Turning to `Nc1sc2ccccc2[n+]1Cc1ccc(C(=O)O)cc1`, the IC50 is > 100 µM (inactive).
Regarding `Cc1c2c(=O)n(-c3nc4ccccc4s3)nc-2cc(O)n1C1CC1`, the IC50 was 1.08 µM.
The value for `Cc1c2c(=O)n(-c3nc4ccccc4s3)nc-2cc(O)n1CCC(C)C` was 2.53 µM; that for `Cc1ccc(-n2cccc2/C=C2/C(=N)N3C(=NC2=O)SN=C3S(C)(=O)=O)cc1C` was 35.2 µM.
For `CCc1ccc(-c2ccc(/C=C3\SC(=S)N(CCCC(=O)O)C3=O)o2)cc1`, the IC50 was 14.8 µM.
The value for `COc1ccc(-c2ccc(/C=C3\SC(=S)N(CCCC(=O)O)C3=O)o2)cc1` was 26 µM; that for `COc1ccccc1Cn1c(O)cc2nn(-c3nc4ccccc4s3)c(=O)c-2c1C` was 2.59 µM.
The value for `O=C(O)CCCN1C(=O)/C(=C\c2ccc(-c3ccc(Cl)cc3)o2)SC1=S` was 15.2 µM.
As to `CS(=O)(=O)C1=NSC2=NC(=O)/C(=C\c3cccn3-c3ccc(Cl)cc3)C(=N)N21`, the IC50 is 36.2 µM.
The value for `COc1ccccc1NS(=O)(=O)c1ccc2c(c1)C1C=CCC1C(c1ccc(C(=O)O)cc1)N2` (stereo not drawn) was 3.93 µM; that for `CCOc1ccc(-n2cccc2/C=C2/C(=N)N3C(=NC2=O)SN=C3S(C)(=O)=O)cc1` was 34.4 µM.
As to `O=C(O)c1ccc(C[n+]2c(-c3ccccc3)csc2Nc2ccccc2)cc1`, the IC50 is 53.9 µM.
The value for `CCOC(=O)C1=C(C)N=c2sc(=Cc3ccc(OCC(=O)O)cc3)c(=O)n2C1c1ccc(F)cc1` (stereo not drawn) was 29 µM; that for `O=C(O)CCCN1C(=O)/C(=C\c2ccc(-c3ccc(F)cc3)o2)SC1=S` was 20.6 µM.
As to `Cc1c2c(=O)n(-c3nc4ccccc4s3)nc-2cc(O)n1Cc1ccncc1`, the IC50 was 4.44 µM.
The value for `CCOC(=O)C1=C(C)N=c2s/c(=C\c3ccc(OCC(=O)O)cc3)c(=O)n2C1c1ccc(OC)c(OCC)c1` (stereo not drawn) was 30.4 µM; that for `Cc1c2c(=O)n(-c3nc4ccccc4s3)nc-2cc(O)n1Cc1cccnc1` was 2.81 µM; that for `CS(=O)(=O)C1=NSC2=NC(=O)/C(=C\c3cccn3-c3cc(Cl)cc(Cl)c3)C(=N)N21` was 34.3 µM.
As to `CCc1ccc(-n2cccc2/C=C2/C(=N)N3C(=NC2=O)SN=C3S(C)(=O)=O)cc1`, the IC50 is 31.9 µM.
Turning to `CS(=O)(=O)C1=NSC2=NC(=O)/C(=C\c3cccn3-c3cccc(F)c3)C(=N)N21`, the IC50 was 36.9 µM.
`CS(=O)(=O)C1=NSC2=NC(=O)/C(=C\c3cccn3-c3cccc(C(F)(F)F)c3)C(=N)N21`: the IC50 was 34.1 µM.
The value for `COc1cccc(-n2cccc2/C=C2/C(=N)N3C(=NC2=O)SN=C3S(C)(=O)=O)c1` was 31.4 µM.
With `O=C(O)CCCN1C(=O)/C(=C/c2ccc(-c3ccc(Cl)c(Cl)c3)o2)SC1=S`, the IC50 was 19.9 µM.
The value for `COc1ccc(CCn2c(O)cc3nn(-c4nc5ccccc5s4)c(=O)c-3c2C)cc1` was 20.5 µM.
The value for `Cc1c2c(=O)n(-c3nc4ccccc4s3)nc-2cc(O)n1CCc1ccc(O)cc1` was 4.66 µM; that for `O=C(O)CCC(C(=O)O)N1C(=O)/C(=C\c2ccco2)SC1=S` (stereo not drawn) was > 100 µM (inactive).
The value for `O=C(O)CCCN1C(=O)/C(=C/c2ccc(-c3cccc(C(F)(F)F)c3)o2)SC1=S` was 23.4 µM; that for `Cc1ccc(-c2ccc(/C=C3\SC(=S)N(CCCC(=O)O)C3=O)o2)cc1` was 20.6 µM; that for `O=C(O)c1ccc(C[n+]2c(-c3ccc([N+](=O)[O-])cc3)csc2Nc2ccccc2)cc1` was 31.7 µM.
For `CC1=C(C(=O)OC(C)C)C(c2ccc(Cl)cc2)n2c(s/c(=C\c3ccc(OCC(=O)O)cc3)c2=O)=N1` (stereo not drawn), the IC50 is > 100 µM (inactive).
The value for `O=C(O)c1ccc(C2Nc3ccc(S(=O)(=O)Nc4cc(Cl)ccc4Cl)cc3C3C=CCC32)cc1` (stereo not drawn) was 15.8 µM.

For the origin of these results see PubChem BioAssay AID504363 (Southern Research Specialized Biocontainment Screening …, 2011).
